According to US12077503B2, “Substituted cyclic amides and their use as herbicides” (FMC CORPORATION, priority 2015, dated 2024):

Legend:
Format in all cases: in vivo
[1] = system: Kochia (Kochia scoparia); experiment: Test A preemergence; conditions: Preemergence; for Plant response rating, Kochia: 125 g ai/ha, visual injury after approximately 10 d, 0 to 100 scale where 0 is no effect and 100 is complete control; for Kochia plant response rating (0 to 100 scale, 0 is no effect, 100 is complete control): 500 g ai/ha, visual injury approx. 10 d
How it was run: (§1)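 Greenhouse, ~10 d after spray; visual injury vs untreated controls, 0 = no effect, 100 = complete control. Preemergence: directed soil spray over planted seeds. Postemergence: plants 2–10 cm, 1–2 leaf stage. Loam/sand blend. Compound in non-phytotoxic solvent with surfactant.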

[2] = system: barnyardgrass (Echinochloa crus-galli); experiment: Test A preemergence; conditions: Preemergence; for Plant response rating, Barnyardgrass: 125 g ai/ha, visual injury after approximately 10 d, 0 to 100 scale where 0 is no effect and 100 is complete control; for Barnyardgrass plant response rating (0 to 100 scale, 0 is no effect, 100 is complete control): 500 g ai/ha, visual injury approx. 10 d
How it was run: as §1

[3] = system: giant foxtail (Setaria faberii); experiment: Test A preemergence; conditions: Preemergence; for Plant response rating, Foxtail, Giant: 125 g ai/ha, visual injury after approximately 10 d, 0 to 100 scale where 0 is no effect and 100 is complete control; for Foxtail, Giant plant response rating (0 to 100 scale, 0 is no effect, 100 is complete control): 500 g ai/ha, visual injury approx. 10 d
How it was run: as §1

[4] = system: pigweed (Amaranthus retroflexus); experiment: Test A preemergence; conditions: Preemergence; for Plant response rating, Pigweed: 125 g ai/ha, visual injury after approximately 10 d, 0 to 100 scale where 0 is no effect and 100 is complete control; for Pigweed plant response rating (0 to 100 scale, 0 is no effect, 100 is complete control): 500 g ai/ha, visual injury approx. 10 d
[5] = system: ragweed (common ragweed, Ambrosia elatior); experiment: Test A preemergence; conditions: Preemergence; for Plant response rating, Ragweed: 125 g ai/ha, visual injury after approximately 10 d, 0 to 100 scale where 0 is no effect and 100 is complete control; for Ragweed plant response rating (0 to 100 scale, 0 is no effect, 100 is complete control): 500 g ai/ha, visual injury approx. 10 d
How it was run: as §1

[6] = system: ryegrass, Italian (Italian ryegrass, Lolium multiflorum); experiment: Test A preemergence; conditions: Preemergence; for Plant response rating, Ryegrass, Italian: 125 g ai/ha, visual injury after approximately 10 d, 0 to 100 scale where 0 is no effect and 100 is complete control; for Ryegrass, Italian plant response rating (0 to 100 scale, 0 is no effect, 100 is complete control): 500 g ai/ha, visual injury approx. 10 d
How it was run: as §1

[7] = system: Galium (catchweed bedstraw, Galium aparine); experiment: Test A postemergence
How it was run: as §1

[8] = system: Kochia (Kochia scoparia); experiment: Test A postemergence
How it was run: as §1

[9] = system: barnyardgrass (Echinochloa crus-galli); experiment: Test A postemergence
How it was run: as §1

[10] = system: blackgrass (Alopecurus myosuroides); experiment: Test A postemergence
How it was run: as §1

[11] = system: corn (Zea mays); experiment: Test A postemergence
How it was run: as §1

[12] = system: giant foxtail (Setaria faberii); experiment: Test A postemergence
How it was run: as §1

[13] = system: pigweed (Amaranthus retroflexus); experiment: Test A postemergence
How it was run: as §1

[14] = system: ragweed (common ragweed, Ambrosia elatior); experiment: Test A postemergence
How it was run: as §1

[15] = system: ryegrass, Italian (Italian ryegrass, Lolium multiflorum); experiment: Test A postemergence
How it was run: as §1

[16] = system: wheat (Triticum aestivum); experiment: Test A postemergence
How it was run: as §1

[17] = system: barnyardgrass (Echinochloa crus-galli); experiment: Test B flooded paddy test; conditions: Flood, 250 g ai/ha; 0 to 100 scale where 0 is no effect and 100 is complete control; 13 to 15 d
How it was run: (§2)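 Evaluation by eye, against controls, occurred 13–15 d post-treatment in a greenhouse, using a 0 (no effect) to 100 (complete control) scale. Application was into the paddy water, 3 cm deep over the soil, on 2-leaf plants.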

[18] = system: ducksalad (Heteranthera limosa); experiment: Test B flooded paddy test; conditions: Flood, 250 g ai/ha; 0 to 100 scale where 0 is no effect and 100 is complete control; 13 to 15 d
How it was run: as §2

[19] = system: rice (Oryra sativa); experiment: Test B flooded paddy test; conditions: Flood, 250 g ai/ha; 0 to 100 scale where 0 is no effect and 100 is complete control; 13 to 15 d
How it was run: as §2

[20] = system: sedge, umbrella (small-flower umbrella sedge, Cyperus difformis); experiment: Test B flooded paddy test; conditions: Flood, 250 g ai/ha; 0 to 100 scale where 0 is no effect and 100 is complete control; 13 to 15 d
How it was run: as §2

[21] = 125 g ai/ha, postemergence, visual rating after approx. 10 d, 0 to 100 scale (0 no effect, 100 complete control)
[22] = Postemergence, 500 g ai/ha, 0 to 100 scale where 0 is no effect and 100 is complete control

| SMILES | Plant response rating, Kochia [1] | Kochia plant response rating (0 to 100 scale, 0 is no effect, 100 is complete control) [1] | Plant response rating, Barnyardgrass [2] | Barnyardgrass plant response rating (0 to 100 scale, 0 is no effect, 100 is complete control) [2] | Plant response rating, Foxtail, Giant [3] | Foxtail, Giant plant response rating (0 to 100 scale, 0 is no effect, 100 is complete control) [3] | Plant response rating, Pigweed [4] | Pigweed plant response rating (0 to 100 scale, 0 is no effect, 100 is complete control) [4] | Plant response rating, Ragweed [5] | Ragweed plant response rating (0 to 100 scale, 0 is no effect, 100 is complete control) [5] | Plant response rating, Ryegrass, Italian [6] | Ryegrass, Italian plant response rating (0 to 100 scale, 0 is no effect, 100 is complete control) [6] | Plant response rating, Galium [7, 21] | Plant response rating, Galium [7, 22] | Plant response rating, Kochia [8, 21] | Plant response rating, Kochia [8, 22] | Plant response rating, Barnyardgrass [9, 21] | Plant response rating, Barnyardgrass [9, 22] | Plant response rating, Blackgrass [10, 21] | Plant response rating, Blackgrass [10, 22] | other results |
| --- | --- | --- | --- | --- | --- | --- | --- | --- | --- | --- | --- | --- | --- | --- | --- | --- | --- | --- | --- | --- | --- |
| O=C1NCC(c2cccc(C(F)(F)F)c2F)C1C(=O)Nc1ccc(F)cc1F (stereo not drawn) [Compound 592] | 0 | 30 | 90 | 90 | 90 | 90 | 0 | 0 | 0 | 20 | 0 | 50 | 20 | 30 | 0 | 40 | 80 | 90 | 30 | 60 | Plant response rating, Corn [11, 21]: 50; Plant response rating, Corn [11, 22]: 70; Plant response rating, Foxtail, Giant [12, 21]: 80; Plant response rating, Foxtail, Giant [12, 22]: 90; Plant response rating, Pigweed [13, 21]: 0; Plant response rating, Pigweed [13, 22]: 0; Plant response rating, Ragweed [14, 21]: 0; Plant response rating, Ragweed [14, 22]: 0; Plant response rating, Ryegrass, Italian [15, 21]: 0; Plant response rating, Ryegrass, Italian [15, 22]: 0; Plant response rating, Wheat [16, 21]: 30; Plant response rating, Wheat [16, 22]: 70; Plant response rating, Barnyardgrass [17]: 55; Plant response rating, Ducksalad [18]: 80; Plant response rating, Rice [19]: 0; Plant response rating, Sedge, Umbrella [20]: 0 |
| O=C1NCC(c2ccsc2Br)C1C(=O)Nc1cccc(F)c1F (stereo not drawn) [Compound 598] | 0 | 0 | 0 | 60 | 0 | 60 | 0 | 0 | 0 | 0 | 0 | 20 | 0 | 30 | 0 | 20 | 10 | 80 | 0 | 0 | Plant response rating, Corn [11, 21]: 0; Plant response rating, Corn [11, 22]: 0; Plant response rating, Foxtail, Giant [12, 21]: 0; Plant response rating, Foxtail, Giant [12, 22]: 20; Plant response rating, Pigweed [13, 21]: 0; Plant response rating, Pigweed [13, 22]: 0; Plant response rating, Ragweed [14, 21]: 0; Plant response rating, Ragweed [14, 22]: 20; Plant response rating, Ryegrass, Italian [15, 21]: 0; Plant response rating, Ryegrass, Italian [15, 22]: 0; Plant response rating, Wheat [16, 21]: 0; Plant response rating, Wheat [16, 22]: 0; Plant response rating, Barnyardgrass [17]: 0; Plant response rating, Ducksalad [18]: 65; Plant response rating, Rice [19]: 0; Plant response rating, Sedge, Umbrella [20]: 0 |
| O=C1NCC(c2ccsc2Cl)C1C(=O)Nc1ccccc1F (stereo not drawn) [Compound 599] | 0 | 0 | 0 | 30 | 0 | 0 | 0 | 0 | 0 | 0 | 0 | 0 | 0 | 0 | 0 | 0 | 0 | 20 | 0 | 0 | Plant response rating, Corn [11, 21]: 0; Plant response rating, Corn [11, 22]: 0; Plant response rating, Foxtail, Giant [12, 21]: 0; Plant response rating, Foxtail, Giant [12, 22]: 0; Plant response rating, Pigweed [13, 21]: 0; Plant response rating, Pigweed [13, 22]: 0; Plant response rating, Ragweed [14, 21]: 0; Plant response rating, Ragweed [14, 22]: 0; Plant response rating, Ryegrass, Italian [15, 21]: 0; Plant response rating, Ryegrass, Italian [15, 22]: 0; Plant response rating, Wheat [16, 21]: 0; Plant response rating, Wheat [16, 22]: 0; Plant response rating, Barnyardgrass [17]: 0; Plant response rating, Ducksalad [18]: 50; Plant response rating, Rice [19]: 0; Plant response rating, Sedge, Umbrella [20]: 0 |
